34 compounds from US9260425B2 (Genetech, Inc., priority 2011, dated 2016) can be followed below.

The experiment concerns the target Pim-1 (Homo sapiens (Human), UniProt P11309). Put plainly: Pim kinase binding activity assay (Example 901), PIM-1 enzyme, Caliper microfluidic peptide phosphorylation. Type of experiment: biochemical. Conditions: 20 pM PIM-1, 10 μM ATP, 1 μM FAM-peptide, 90 minutes at room temperature. Put shortly: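 The readout was microfluidic mobility-shift separation of a FAM-tagged Pim-specific peptide, excited at 488 nm and read at 530 nm, with Ki calculated from percent conversion. Reactions held 20 pM PIM-1, 1 μM peptide and 10 μM ATP in pH 7.2 HEPES/MgCl2/DTT buffer, ran 90 min at room temperature and were stopped with EDTA.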

Chain of Pim-1 (P11309 whole entry): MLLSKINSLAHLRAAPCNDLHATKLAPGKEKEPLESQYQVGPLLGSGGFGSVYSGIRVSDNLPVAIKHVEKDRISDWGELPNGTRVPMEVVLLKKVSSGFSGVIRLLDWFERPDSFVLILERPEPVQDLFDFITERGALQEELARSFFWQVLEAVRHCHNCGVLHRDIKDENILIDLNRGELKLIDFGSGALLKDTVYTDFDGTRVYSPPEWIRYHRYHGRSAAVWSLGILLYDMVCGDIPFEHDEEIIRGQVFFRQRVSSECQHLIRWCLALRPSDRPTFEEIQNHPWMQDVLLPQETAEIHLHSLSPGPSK

Turning to `CC(C)n1cc(-c2cc3c(-c4cccc(N5CCNCC5)n4)n[nH]c3cn2)cn1` [Example 389, 5-(1-isopropyl-1H-pyrazol-4-yl)-3-(6-(piperazin-1-yl)pyridin-2-yl)-1H-pyrazolo[3,4-c]pyridine], the Ki was 0.213 nM. The value for `FCCn1cc(-c2cc3c(-c4cccc(N5CCNCC5)n4)n[nH]c3cn2)cn1` [Example 391, 5-(1-(2-fluoroethyl)-1H-pyrazol-4-yl)-3-(6-(piperazin-1-yl)pyridin-2-yl)-1H-pyrazolo[3,4-c]pyridine] was 0.108 nM. With `Cn1cc(-c2cc3c(-c4ccc(Br)c(N5CCC(N)CC5)n4)n[nH]c3cn2)cn1` [Example 392, 1-(3-bromo-6-(5-(1-methyl-1H-pyrazol-4-yl)-1H-pyrazolo[3,4-c]pyridin-3-yl)pyridin-2-yl)piperidin-4-amine] the figure was 0.03 nM. Consider `Cn1cc(-c2cc3c(-c4ccc(Br)c(N5CCC[C@H](O)C5)n4)n[nH]c3cn2)cn1` [Example 393, (S)-1-(3-bromo-6-(5-(1-methyl-1H-pyrazol-4-yl)-1H-pyrazolo[3,4-c]pyridin-3-yl)pyridin-2-yl)piperidin-3-ol], for which the Ki came out at 0.333 nM.

With `Cn1cc(-c2cc3c(-c4ccc(Br)c(N5CCC[C@@H](O)C5)n4)n[nH]c3cn2)cn1` [Example 394, (R)-1-(3-bromo-6-(5-(1-methyl-1H-pyrazol-4-yl)-1H-pyrazolo[3,4-c]pyridin-3-yl)pyridin-2-yl)piperidin-3-ol], the affinity, expressed as Ki, was 0.316 nM. As for `CCn1cc(-c2cc3c(-c4cccc(N5C[C@H]6CNC[C@H]6C5)n4)n[nH]c3cn2)cn1` [Example 395], the Ki was determined as 0.404 nM. The value for `CCn1cc(-c2cc3c(-c4cccc(N5CCN[C@@H](C)C5)n4)n[nH]c3cn2)cn1` [Example 396, (S)-5-(1-ethyl-1H-pyrazol-4-yl)-3-(6-(3-methylpiperazin-1-yl)pyridin-2-yl)-1H-pyrazolo[3,4-c]pyridine] was 0.081 nM; that for `CCn1cc(-c2cc3c(-c4cccc(N5CCN[C@H](C)C5)n4)n[nH]c3cn2)cn1` [Example 397, (R)-5-(1-ethyl-1H-pyrazol-4-yl)-3-(6-(3-methylpiperazin-1-yl)pyridin-2-yl)-1H-pyrazolo[3,4-c]pyridine] was 0.046 nM; that for `N#Cc1cc2c(-c3cccc(N4CCC[C@@H](N)C4)n3)n[nH]c2cn1` [Example 398, (R)-3-(6-(3-aminopiperidin-1-yl)pyridin-2-yl)-1H-pyrazolo[3,4-c]pyridine-5-carbonitrile] was 39.1 nM.

The compound `N#Cc1cc2c(-c3cccc(N4CCC[C@H](N)C4)n3)n[nH]c2cn1` [Example 399, (S)-3-(6-(3-aminopiperidin-1-yl)pyridin-2-yl)-1H-pyrazolo[3,4-c]pyridine-5-carbonitrile] gave a Ki of 22.6 nM. The value for `N#Cc1cc2c(-c3cccc(N4CCNCC4)n3)n[nH]c2cn1` [Example 400, 3-(6-(piperazin-1-yl)pyridin-2-yl)-1H-pyrazolo[3,4-c]pyridine-5-carbonitrile] was 51.1 nM; that for `c1cc(-c2n[nH]c3cnc(N4CCOCC4)cc23)nc(N2CCNCC2)c1` [Example 401, 4-(3-(6-(piperazin-1-yl)pyridin-2-yl)-1H-pyrazolo[3,4-c]pyridin-5-yl)morpholine] was 3.29 nM; that for `CN1CCN(c2nc(-c3n[nH]c4cnc(-c5cnn(C)c5)cc34)ccc2Br)CC1` [Example 402, 3-(5-bromo-6-(4-methylpiperazin-1-yl)pyridin-2-yl)-5-(1-methyl-1H-pyrazol-4-yl)-1H-pyrazolo[3,4-c]pyridine] was 0.07 nM. The value for `CCn1cc(-c2cc3c(-c4ccc(Br)c(N5CCC[C@H](N)C5)n4)n[nH]c3cn2)cn1` [Example 403, (S)-1-(3-bromo-6-(5-(1-ethyl-1H-pyrazol-4-yl)-1H-pyrazolo[3,4-c]pyridin-3-yl)pyridin-2-yl)piperidin-3-amine] was 0.04 nM. The compound `CCn1cc(-c2cc3c(-c4ccc(Br)c(N5CCNCC5)n4)n[nH]c3cn2)cn1` [Example 404, 3-(5-bromo-6-(piperazin-1-yl)pyridin-2-yl)-5-(1-ethyl-1H-pyrazol-4-yl)-1H-pyrazolo[3,4-c]pyridine] yielded a Ki of 0.09 nM. Regarding `Cn1cc(-c2cc3c(-c4ccc(Br)c(N5CC(N6CCNC(=O)C6)C5)n4)n[nH]c3cn2)cn1` [Example 405, 4-(1-(3-bromo-6-(5-(1-methyl-1H-pyrazol-4-yl)-1H-pyrazolo[3,4-c]pyridin-3-yl)pyridin-2-yl)azetidin-3-yl)piperazin-2-one], the Ki was 0.527 nM. The value for `Cn1cc(-c2cc3c(-c4ccc(Br)c(N5CCN(CCS(C)(=O)=O)C(C)(C)C5)n4)n[nH]c3cn2)cn1` [Example 406, 3-(5-bromo-6-(3,3-dimethyl-4-(2-(methylsulfonyl)ethyl)piperazin-1-yl)pyridin-2-yl)-5-(1-methyl-1H-pyrazol-4-yl)-1H-pyrazolo[3,4-c]pyridine] was 0.259 nM; that for `CCn1cc(-c2cc3c(-c4cccc(N5CCCNCC5)n4)n[nH]c3cn2)cn1` [Example 409, 3-(6-(1,4-diazepan-1-yl)pyridin-2-yl)-5-(1-ethyl-1H-pyrazol-4-yl)-1H-pyrazolo[3,4-c]pyridine] was 0.02 nM; that for `CCn1cc(-c2cc3c(-c4cccc(N5CCNC[C@H](O)C5)n4)n[nH]c3cn2)cn1` [Example 410, (S)-1-(6-(5-(1-ethyl-1H-pyrazol-4-yl)-1H-pyrazolo[3,4-c]pyridin-3-yl)pyridin-2-yl)-1,4-diazepan-6-ol] was 0.039 nM. With `CCn1cc(-c2cc3c(-c4cccc(N5CCNC[C@@H](O)C5)n4)n[nH]c3cn2)cn1` [Example 411, (R)-1-(6-(5-(1-ethyl-1H-pyrazol-4-yl)-1H-pyrazolo[3,4-c]pyridin-3-yl)pyridin-2-yl)-1,4-diazepan-6-ol] the figure was 0.014 nM; with `C=Cc1ccc(-c2n[nH]c3cnc(-c4cnn(C)c4)cc23)nc1N1CCC[C@H](N)C1` [Example 412, (S)-1-(6-(5-(1-methyl-1H-pyrazol-4-yl)-1H-pyrazolo[3,4-c]pyridin-3-yl)-3-vinylpyridin-2-yl)piperidin-3-amine], 0.036 nM. With `Cc1ccc(-c2n[nH]c3cnc(-c4cnn(C)c4)cc23)nc1N1CC(N2CCS(=O)(=O)CC2)C1` [Example 413, 4-(1-(3-methyl-6-(5-(1-methyl-1H-pyrazol-4-yl)-1H-pyrazolo[3,4-c]pyridin-3-yl)pyridin-2-yl)azetidin-3-yl)-1,1-dioxo thiomorpholine] the figure was 1.02 nM; with `C=C(C)c1ccc(-c2n[nH]c3cnc(-c4cnn(C)c4)cc23)nc1N1CCC[C@H](N)C1` [Example 414, (S)-1-(6-(5-(1-methyl-1H-pyrazol-4-yl)-1H-pyrazolo[3,4-c]pyridin-3-yl)-3-(prop-1-en-2-yl)pyridin-2-yl)piperidin-3-amine], 0.028 nM; with `O=C1OCCN1c1cc2c(-c3cccc(N4CCNCC4)n3)n[nH]c2cn1` [Example 415, 3-(3-(6-(piperazin-1-yl)pyridin-2-yl)-1H-pyrazolo[3,4-c]pyridin-5-yl)oxazolidin-2-one], 104 nM. In the case of `c1cc(-c2n[nH]c3cnc(-c4cnn(CC5COC5)c4)cc23)nc(N2CCNCC2)c1` [Example 416, 5-(1-(oxetan-3-ylmethyl)-1H-pyrazol-4-yl)-3-(6-(piperazin-l-yl)pyridin-2-yl)-1H-pyrazolo[3,4-c]pyridine], the Ki is 11.3 nM. With `Cc1ccc(-c2n[nH]c3cnc(-c4cnn(C)c4)cc23)nc1N1CCC[C@@H](O)C1` [Example 418, (R)-1-(3-methyl-6-(5-(1-methyl-1H-pyrazol-4-yl)-1H-pyrazolo[3,4-c]pyridin-3-yl)pyridin-2-yl)piperidin-3-ol] the figure was 0.11 nM; with `Cc1ccc(-c2n[nH]c3cnc(-c4cnn(C)c4)cc23)nc1N1CCOCC1` [Example 419, 4-(3-methyl-6-(5-(1-methyl-1H-pyrazol-4-yl)-1H-pyrazolo[3,4-c]pyridin-3-yl)pyridin-2-yl)morpholine], 0.16 nM.

As for `Cn1cc(-c2cc3c(-c4cccc(N5CCOCC5)n4)n[nH]c3cn2)cn1` [Example 420, 4-(6-(5-(1-methyl-1H-pyrazol-4-yl)-1H-pyrazolo[3,4-c]pyridin-3-yl)pyridin-2-yl)morpholine], the Ki was 0.368 nM. The value for `FC1(c2cccc(-c3n[nH]c4cnc(-c5cccnc5)cc34)n2)CCNCC1` [Example 421, 3-(6-(4-fluoropiperidin-4-yl)pyridin-2-yl)-5-(pyridin-3-yl)-1H-pyrazolo[3,4-c]pyridine] was 0.105 nM.

In turn, `OC1(c2cccc(-c3n[nH]c4cnc(-c5cccnc5)cc34)n2)CCNCC1` [Example 422, 4-(6-(5-(pyridin-3-yl)-1H-pyrazolo[3,4-c]pyridin-3-yl)pyridin-2-yl)piperidin-4-ol] displayed a Ki of 300 nM.

Regarding `Cn1cc(-c2cc3c(-c4cccc(N5CCC[C@](C)(O)C5)n4)n[nH]c3cn2)cn1` [Example 423, (S)-3-methyl-1-(6-(5-(1-methyl-1H-pyrazol-4-yl)-1H-pyrazolo[3,4-c]pyridin-3-yl)pyridin-2-yl)piperidin-3-ol], the affinity corresponds to a Ki of 0.128 nM. This Ki is about 2300-fold lower than that of the compound before. With `Cn1cc(-c2cc3c(-c4cccc(N5CCC[C@@](C)(O)C5)n4)n[nH]c3cn2)cn1` [Example 424, (R)-3-methyl-1-(6-(5-(1-methyl-1H-pyrazol-4-yl)-1H-pyrazolo[3,4-c]pyridin-3-yl)pyridin-2-yl)piperidin-3-ol] the figure was 0.073 nM; with `Cc1ccc(-c2n[nH]c3cnc(-c4cnn(C)c4)cc23)nc1N1CC(N2CCNC(=O)C2)C1` [Example 425, 4-(1-(3-methyl-6-(5-(1-methyl-1H-pyrazol-4-yl)-1H-pyrazolo[3,4-c]pyridin-3-yl)pyridin-2-yl)azetidin-3-yl)piperazin-2-one], 0.618 nM; with `Cc1ccc(-c2n[nH]c3cnc(-c4cccnc4)cc23)nc1N1CC(N2CCNC(=O)C2)C1` [Example 426, 4-(1-(3-methyl-6-(5-(pyridin-3-yl)-1H-pyrazolo[3,4-c]pyridin-3-yl)pyridin-2-yl)azetidin-3-yl)piperazin-2-one], 0.46 nM.
